AC50 data for 21 compounds are collected here from ChEMBL document CHEMBL5291721, “A preclinical secondary pharmacology resource illuminates target-adverse drug reaction associations of marketed drugs” (Nat Commun, 2023).

Values joined by “and” are separate entries in the source; they are usually repeats but may differ in a detail not shown here. Equal entries are not always repeated.

Targets include D(3) dopamine receptor (Homo sapiens, UniProt P35462); Adenosine receptor A2a (Homo sapiens, UniProt P29274); Mu-type opioid receptor (Homo sapiens, UniProt P35372); Melanocortin receptor 3 (Homo sapiens, UniProt P41968); Vasopressin V2 receptor (Homo sapiens, UniProt P30518).
In test [1] the target is Vascular endothelial growth factor receptor 2 (Homo sapiens, UniProt P35968). It counts as functional.
The target in test [2] is T1, Alpha-1A adrenergic receptor (Homo sapiens, UniProt P35348).
T1 sequence (P35348 whole entry): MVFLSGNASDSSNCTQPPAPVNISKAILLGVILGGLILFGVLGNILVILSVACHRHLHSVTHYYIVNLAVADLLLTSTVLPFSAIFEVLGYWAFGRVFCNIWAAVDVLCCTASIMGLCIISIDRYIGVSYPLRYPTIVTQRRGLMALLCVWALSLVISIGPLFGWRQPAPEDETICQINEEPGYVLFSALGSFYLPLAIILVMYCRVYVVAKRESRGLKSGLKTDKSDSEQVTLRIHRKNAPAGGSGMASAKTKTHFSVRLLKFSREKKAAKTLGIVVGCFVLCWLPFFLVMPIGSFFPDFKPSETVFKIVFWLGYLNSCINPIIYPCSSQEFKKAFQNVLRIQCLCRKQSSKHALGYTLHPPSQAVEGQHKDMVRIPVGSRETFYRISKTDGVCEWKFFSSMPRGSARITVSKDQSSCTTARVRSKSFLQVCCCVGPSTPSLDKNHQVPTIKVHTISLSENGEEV
It counts as functional, cell-based.

The target in test [3] is T2, Muscarinic acetylcholine receptor M2 (Homo sapiens, UniProt P08172).
T2 sequence (P08172 whole entry): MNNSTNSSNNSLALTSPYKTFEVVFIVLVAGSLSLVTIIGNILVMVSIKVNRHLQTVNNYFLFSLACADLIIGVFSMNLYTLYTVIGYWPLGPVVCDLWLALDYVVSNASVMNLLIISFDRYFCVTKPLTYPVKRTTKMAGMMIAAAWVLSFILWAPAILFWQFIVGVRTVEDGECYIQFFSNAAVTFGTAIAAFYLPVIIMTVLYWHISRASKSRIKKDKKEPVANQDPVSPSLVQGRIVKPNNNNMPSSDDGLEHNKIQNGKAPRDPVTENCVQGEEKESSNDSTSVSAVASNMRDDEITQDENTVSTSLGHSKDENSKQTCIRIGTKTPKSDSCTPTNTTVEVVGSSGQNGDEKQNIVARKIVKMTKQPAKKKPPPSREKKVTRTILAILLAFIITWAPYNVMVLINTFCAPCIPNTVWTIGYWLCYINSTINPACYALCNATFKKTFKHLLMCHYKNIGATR
It counts as functional, cell-based.

In the next test the target is T3, Adenosine receptor A3 (Homo sapiens, UniProt P0DMS8).
T3 sequence (P0DMS8 whole entry): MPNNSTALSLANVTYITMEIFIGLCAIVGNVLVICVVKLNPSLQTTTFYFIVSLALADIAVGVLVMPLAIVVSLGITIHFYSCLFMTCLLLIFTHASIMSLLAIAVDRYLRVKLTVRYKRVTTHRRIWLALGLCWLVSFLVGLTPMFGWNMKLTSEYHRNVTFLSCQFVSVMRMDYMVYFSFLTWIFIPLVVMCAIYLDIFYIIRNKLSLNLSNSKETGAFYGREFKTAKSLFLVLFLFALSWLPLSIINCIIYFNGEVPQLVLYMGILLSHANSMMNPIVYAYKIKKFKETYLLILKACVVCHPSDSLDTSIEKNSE

Test [4] concerns the target Sodium-dependent noradrenaline transporter (Homo sapiens, UniProt P23975).
Test [5] concerns the target T4, Alpha-2A adrenergic receptor (Homo sapiens, UniProt P08913).
T4 sequence (P08913 whole entry): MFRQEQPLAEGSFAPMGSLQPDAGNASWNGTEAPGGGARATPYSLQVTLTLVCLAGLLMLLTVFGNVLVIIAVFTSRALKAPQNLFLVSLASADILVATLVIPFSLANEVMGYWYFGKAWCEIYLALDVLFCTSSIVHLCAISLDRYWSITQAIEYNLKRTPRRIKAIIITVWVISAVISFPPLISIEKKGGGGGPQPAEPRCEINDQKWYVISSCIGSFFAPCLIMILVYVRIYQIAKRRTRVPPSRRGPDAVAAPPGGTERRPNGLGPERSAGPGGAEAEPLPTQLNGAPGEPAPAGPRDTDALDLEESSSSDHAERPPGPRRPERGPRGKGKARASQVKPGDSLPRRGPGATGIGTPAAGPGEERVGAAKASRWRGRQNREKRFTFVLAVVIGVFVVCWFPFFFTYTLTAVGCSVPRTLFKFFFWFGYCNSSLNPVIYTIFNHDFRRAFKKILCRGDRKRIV
It is filed as functional, cell-based.

For test [6], the target named is T5, 5-hydroxytryptamine receptor 1A (Homo sapiens, UniProt P08908).
T5 sequence (P08908 whole entry): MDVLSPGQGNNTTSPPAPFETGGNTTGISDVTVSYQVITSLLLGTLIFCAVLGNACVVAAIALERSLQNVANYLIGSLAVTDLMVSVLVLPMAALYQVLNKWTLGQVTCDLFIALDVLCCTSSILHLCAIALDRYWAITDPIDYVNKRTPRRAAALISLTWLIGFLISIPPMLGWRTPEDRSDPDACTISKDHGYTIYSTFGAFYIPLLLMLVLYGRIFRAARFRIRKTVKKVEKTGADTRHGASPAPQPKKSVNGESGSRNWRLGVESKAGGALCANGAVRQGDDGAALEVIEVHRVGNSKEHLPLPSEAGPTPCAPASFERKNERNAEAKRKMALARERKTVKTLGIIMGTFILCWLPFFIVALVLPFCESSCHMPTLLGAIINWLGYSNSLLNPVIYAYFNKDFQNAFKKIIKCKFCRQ
It is filed as functional, cell-based.

Test [7] addresses Growth hormone secretagogue receptor type 1 (Homo sapiens, UniProt Q92847).
A further test addresses Histamine H2 receptor (Homo sapiens, UniProt P25021). It counts as functional, cell-based.
The target in test [8] is Voltage-dependent L-type calcium channel subunit alpha-1C (Rattus norvegicus, UniProt P22002). It is filed as functional.
Sequence of Voltage-dependent L-type calcium channel subunit alpha-1C (P22002 whole entry): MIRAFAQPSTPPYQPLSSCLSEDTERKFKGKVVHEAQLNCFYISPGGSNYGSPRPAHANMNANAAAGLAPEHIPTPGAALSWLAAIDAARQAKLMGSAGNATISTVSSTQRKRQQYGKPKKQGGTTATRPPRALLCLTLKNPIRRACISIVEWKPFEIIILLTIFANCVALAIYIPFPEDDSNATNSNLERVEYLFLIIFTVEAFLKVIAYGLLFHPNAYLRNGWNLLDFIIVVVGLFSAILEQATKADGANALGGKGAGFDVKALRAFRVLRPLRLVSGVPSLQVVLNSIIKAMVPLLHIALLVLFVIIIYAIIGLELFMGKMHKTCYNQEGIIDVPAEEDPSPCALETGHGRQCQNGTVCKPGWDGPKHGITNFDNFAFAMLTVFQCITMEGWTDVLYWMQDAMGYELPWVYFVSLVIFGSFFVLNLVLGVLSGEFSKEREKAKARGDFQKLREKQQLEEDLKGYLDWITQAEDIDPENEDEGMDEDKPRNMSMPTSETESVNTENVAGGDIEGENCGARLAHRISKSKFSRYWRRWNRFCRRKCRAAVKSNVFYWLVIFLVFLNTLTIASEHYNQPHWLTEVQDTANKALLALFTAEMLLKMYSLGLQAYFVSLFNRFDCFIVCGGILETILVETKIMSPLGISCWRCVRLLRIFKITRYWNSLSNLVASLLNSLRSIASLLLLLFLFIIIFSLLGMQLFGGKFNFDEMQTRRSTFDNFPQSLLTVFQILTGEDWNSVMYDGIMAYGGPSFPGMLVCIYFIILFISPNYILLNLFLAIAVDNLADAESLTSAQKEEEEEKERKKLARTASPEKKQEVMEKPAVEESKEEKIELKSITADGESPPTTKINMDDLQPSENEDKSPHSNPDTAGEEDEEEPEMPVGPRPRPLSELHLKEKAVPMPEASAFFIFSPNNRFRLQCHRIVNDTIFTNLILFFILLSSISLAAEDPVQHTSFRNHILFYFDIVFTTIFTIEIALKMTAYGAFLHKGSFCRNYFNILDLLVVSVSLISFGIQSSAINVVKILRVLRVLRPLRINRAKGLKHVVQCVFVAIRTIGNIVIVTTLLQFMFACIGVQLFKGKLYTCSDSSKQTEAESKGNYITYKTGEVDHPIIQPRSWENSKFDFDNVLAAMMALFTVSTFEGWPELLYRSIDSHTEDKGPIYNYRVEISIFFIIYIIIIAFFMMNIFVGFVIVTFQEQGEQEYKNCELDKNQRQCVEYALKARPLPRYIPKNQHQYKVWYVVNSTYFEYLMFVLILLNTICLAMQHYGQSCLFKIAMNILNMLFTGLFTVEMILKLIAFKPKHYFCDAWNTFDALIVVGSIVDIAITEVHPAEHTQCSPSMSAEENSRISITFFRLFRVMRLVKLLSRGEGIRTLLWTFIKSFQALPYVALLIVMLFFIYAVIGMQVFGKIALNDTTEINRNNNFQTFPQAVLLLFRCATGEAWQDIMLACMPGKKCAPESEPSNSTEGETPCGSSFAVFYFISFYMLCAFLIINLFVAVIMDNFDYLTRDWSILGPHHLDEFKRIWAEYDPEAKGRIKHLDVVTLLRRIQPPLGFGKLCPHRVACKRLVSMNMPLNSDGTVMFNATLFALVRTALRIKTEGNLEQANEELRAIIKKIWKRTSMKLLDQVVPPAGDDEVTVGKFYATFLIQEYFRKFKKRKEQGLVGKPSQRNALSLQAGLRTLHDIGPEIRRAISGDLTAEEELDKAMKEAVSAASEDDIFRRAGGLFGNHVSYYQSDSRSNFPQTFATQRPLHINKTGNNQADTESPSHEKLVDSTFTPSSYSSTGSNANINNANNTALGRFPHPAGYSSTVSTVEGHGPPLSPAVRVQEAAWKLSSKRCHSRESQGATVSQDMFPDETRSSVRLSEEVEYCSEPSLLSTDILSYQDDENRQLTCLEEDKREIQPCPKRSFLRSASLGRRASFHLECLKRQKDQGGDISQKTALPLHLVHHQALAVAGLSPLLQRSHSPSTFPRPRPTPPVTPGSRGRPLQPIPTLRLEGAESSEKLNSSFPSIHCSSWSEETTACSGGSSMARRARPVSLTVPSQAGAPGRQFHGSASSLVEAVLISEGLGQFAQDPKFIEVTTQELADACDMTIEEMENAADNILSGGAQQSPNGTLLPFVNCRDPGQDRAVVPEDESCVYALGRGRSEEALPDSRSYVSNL
Further: assay procedure not described here.

Sequence of Melanocortin receptor 3 (P41968 whole entry): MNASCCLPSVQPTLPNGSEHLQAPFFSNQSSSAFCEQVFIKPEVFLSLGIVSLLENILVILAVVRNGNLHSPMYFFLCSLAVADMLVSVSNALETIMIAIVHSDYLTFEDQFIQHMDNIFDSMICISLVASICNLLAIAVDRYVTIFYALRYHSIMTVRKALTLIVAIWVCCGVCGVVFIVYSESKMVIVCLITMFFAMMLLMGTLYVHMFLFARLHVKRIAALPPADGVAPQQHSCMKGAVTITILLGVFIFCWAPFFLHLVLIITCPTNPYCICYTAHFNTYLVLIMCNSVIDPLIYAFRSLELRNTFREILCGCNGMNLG
Sequence of Vasopressin V2 receptor (P30518 whole entry): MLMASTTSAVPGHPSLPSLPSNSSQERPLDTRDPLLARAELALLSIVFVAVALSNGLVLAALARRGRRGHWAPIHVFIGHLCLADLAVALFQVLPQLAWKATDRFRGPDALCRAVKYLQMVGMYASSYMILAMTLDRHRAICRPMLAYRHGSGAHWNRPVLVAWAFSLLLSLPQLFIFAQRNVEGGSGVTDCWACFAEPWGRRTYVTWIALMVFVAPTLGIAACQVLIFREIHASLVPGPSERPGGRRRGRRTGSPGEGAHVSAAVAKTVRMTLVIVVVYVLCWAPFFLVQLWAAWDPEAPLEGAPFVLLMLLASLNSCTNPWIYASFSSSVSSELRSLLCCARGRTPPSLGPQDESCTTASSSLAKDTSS
Sequence of Sodium-dependent noradrenaline transporter (P23975 whole entry): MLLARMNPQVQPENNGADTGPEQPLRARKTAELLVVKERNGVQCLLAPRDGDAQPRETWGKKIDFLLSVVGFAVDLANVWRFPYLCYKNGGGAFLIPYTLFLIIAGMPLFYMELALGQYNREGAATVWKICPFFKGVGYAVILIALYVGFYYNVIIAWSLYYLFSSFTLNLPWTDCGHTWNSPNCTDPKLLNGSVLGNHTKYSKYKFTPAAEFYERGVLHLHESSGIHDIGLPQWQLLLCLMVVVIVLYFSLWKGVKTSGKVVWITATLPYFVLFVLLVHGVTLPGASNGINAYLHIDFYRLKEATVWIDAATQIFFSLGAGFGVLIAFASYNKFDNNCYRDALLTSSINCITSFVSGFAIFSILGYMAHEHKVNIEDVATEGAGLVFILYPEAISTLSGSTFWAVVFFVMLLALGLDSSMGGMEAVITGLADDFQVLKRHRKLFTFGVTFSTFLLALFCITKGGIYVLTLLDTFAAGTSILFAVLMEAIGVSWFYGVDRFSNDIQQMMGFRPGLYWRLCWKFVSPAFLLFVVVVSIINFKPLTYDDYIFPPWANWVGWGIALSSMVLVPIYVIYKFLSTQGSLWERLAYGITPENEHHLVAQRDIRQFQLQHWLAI
Sequence of Growth hormone secretagogue receptor type 1 (Q92847 whole entry): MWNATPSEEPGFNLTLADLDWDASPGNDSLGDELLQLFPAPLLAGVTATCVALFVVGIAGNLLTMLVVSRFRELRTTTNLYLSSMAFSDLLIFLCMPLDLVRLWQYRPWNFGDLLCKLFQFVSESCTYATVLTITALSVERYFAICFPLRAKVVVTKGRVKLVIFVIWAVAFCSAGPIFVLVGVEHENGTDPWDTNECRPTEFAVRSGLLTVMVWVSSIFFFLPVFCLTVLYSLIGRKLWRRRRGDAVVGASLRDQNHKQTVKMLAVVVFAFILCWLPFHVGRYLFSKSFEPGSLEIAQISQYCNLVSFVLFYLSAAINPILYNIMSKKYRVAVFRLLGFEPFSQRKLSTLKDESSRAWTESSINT
Sequence of Histamine H2 receptor (P25021 whole entry): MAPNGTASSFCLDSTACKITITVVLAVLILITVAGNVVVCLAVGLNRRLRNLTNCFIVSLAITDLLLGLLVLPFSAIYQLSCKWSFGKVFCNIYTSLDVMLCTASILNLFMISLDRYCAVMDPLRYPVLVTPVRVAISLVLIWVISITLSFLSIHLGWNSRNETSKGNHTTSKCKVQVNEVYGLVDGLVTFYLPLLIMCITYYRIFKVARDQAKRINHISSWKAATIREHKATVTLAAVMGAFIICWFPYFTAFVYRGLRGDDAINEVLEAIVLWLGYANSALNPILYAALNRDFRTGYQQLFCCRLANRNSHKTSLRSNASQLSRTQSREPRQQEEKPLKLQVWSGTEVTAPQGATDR
Sequence of Adenosine receptor A2a (P29274 whole entry): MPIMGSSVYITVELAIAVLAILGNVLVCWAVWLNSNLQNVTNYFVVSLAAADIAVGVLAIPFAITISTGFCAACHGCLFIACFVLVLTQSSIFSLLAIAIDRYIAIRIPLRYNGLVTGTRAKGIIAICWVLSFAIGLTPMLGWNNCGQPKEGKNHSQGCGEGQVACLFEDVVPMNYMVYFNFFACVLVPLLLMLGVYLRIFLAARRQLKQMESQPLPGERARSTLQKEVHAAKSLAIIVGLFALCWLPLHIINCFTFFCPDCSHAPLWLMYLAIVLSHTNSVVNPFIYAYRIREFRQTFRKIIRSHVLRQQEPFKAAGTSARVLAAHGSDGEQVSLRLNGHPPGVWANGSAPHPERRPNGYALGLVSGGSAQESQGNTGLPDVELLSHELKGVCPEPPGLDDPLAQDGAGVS
Sequence of Mu-type opioid receptor (P35372 whole entry): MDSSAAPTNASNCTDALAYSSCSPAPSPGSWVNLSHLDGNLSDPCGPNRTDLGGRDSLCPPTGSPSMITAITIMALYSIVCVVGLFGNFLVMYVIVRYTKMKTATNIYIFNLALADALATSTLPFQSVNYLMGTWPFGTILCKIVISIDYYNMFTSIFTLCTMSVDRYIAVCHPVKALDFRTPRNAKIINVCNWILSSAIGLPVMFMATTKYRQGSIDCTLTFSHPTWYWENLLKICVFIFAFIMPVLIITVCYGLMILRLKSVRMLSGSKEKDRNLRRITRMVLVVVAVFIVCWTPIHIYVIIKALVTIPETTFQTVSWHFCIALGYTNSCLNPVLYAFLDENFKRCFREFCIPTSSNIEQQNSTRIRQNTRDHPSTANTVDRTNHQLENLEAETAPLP

Consider `O=C(O)COc1ccc(C(=O)c2cccs2)c(Cl)c1Cl`, for which the concentration at half-maximal activity (AC50) in test [1] and in test [2] was above 30 µM in each case.

On to `COc1c2ccoc2cc2oc(=O)ccc12` [BERGAPTEN], for which the half-maximal activity concentration (AC50) in test [1] and in test [2] was above 30 µM in each case.

Regarding `COc1cc2nccc(Oc3ccc(NC(=O)C4(C(=O)Nc5ccc(F)cc5)CC4)cc3)c2cc1OC` [CABOZANTINIB], the concentration at half-maximal activity (AC50) in test [3] is above 30 µM; on D(3) dopamine receptor, above 30 µM; at Adenosine receptor A2a, above 30 µM; at Adenosine receptor A3, 3.7 µM; in test [4], above 30 µM; at Mu-type opioid receptor, above 30 µM. The half-maximal activity concentration (AC50) in test [5] was above 30 µM; in test [2], 9.03 µM; in test [6] it was above 30 µM; in [7] it was above 30 µM; on Melanocortin receptor 3, above 30 µM.

Consider `N[C@@H](CS)C(=O)O` [CYSTEINE], for which the AC50 in test [1] and in [2] was above 30 µM throughout.

For `C[C@H]1O[C@@H](n2cc(F)c(=O)[nH]c2=O)[C@H](O)[C@@H]1O` [DOXIFLURIDINE], the AC50 in [1] and in test [2] was above 30 µM in each case.

In [1], `CC(CCc1ccccc1)NCC(O)c1ccc(O)c(C(N)=O)c1` (centres undefined) [LABETALOL] registered an AC50 above 30 µM.

As to `C[N+](C)(C)C[C@H](O)CC(=O)[O-]` [LEVOCARNITINE], the AC50 in [1] and in test [2] was above 30 µM in each case.

Consider `CN1CCCCC1CCN1c2ccccc2Sc2ccc([S+](C)[O-])cc21` (centres undefined) [MESORIDAZINE], for which the concentration at half-maximal activity (AC50) in test [1] was above 30 µM; in test [2] it was 0.0171 µM.

Turning to `C[C@@H]1C[C@H]2[C@@H]3CCC4=CC(=O)C=C[C@]4(C)[C@@]3(Cl)[C@@H](O)C[C@]2(C)[C@@]1(OC(=O)c1ccco1)C(=O)CCl` [MOMETASONE FUROATE], the AC50 was above 30 µM in [1] and above 10 µM in test [2].

With `Cc1ccccc1C(=O)Nc1ccc(C(=O)N2CCCC(N(C)C)c3ccccc32)cc1` (centres undefined) [MOZAVAPTAN], the results for the concentration at half-maximal activity (AC50) in [1] and in test [2] were above 30 µM and 18.8 µM, respectively.

For the compound `CCOC(=O)C1=C[C@@H](OC(CC)CC)[C@H](NC(C)=O)[C@@H](N)C1` [OSELTAMIVIR], the AC50 in [1] and in test [2] was above 30 µM throughout.

Turning to `Cc1onc(-c2ccccc2)c1C(=O)N[C@@H]1C(=O)N2[C@@H]1SC(C)(C)[C@@H]2C(=O)O` [OXACILLIN], the half-maximal activity concentration (AC50) in test [1] and in test [2] was above 30 µM each time.

As for `[H]/N=C(\N/C(=N/[H])Nc1ccc(Cl)cc1)NC(C)C` [PROGUANIL], the concentration at half-maximal activity (AC50) in [1] and in test [2] was above 30 µM throughout.

In the case of `CC(CN1CC(=O)NC(=O)C1)N1CC(=O)NC(=O)C1` (centres undefined) [RAZOXANE], the AC50 in [1] and in test [2] was above 30 µM each time.

For `Nc1ccc(S(=O)(=O)Nc2nccs2)cc1` [SULFATHIAZOLE], the AC50 was above 10 µM in test [3]; above 10 µM at Histamine H2 receptor; above 10 µM at D(3) dopamine receptor; above 30 µM at Adenosine receptor A2a; above 30 µM on Adenosine receptor A3; above 10 µM in test [8]. Also, the concentration at half-maximal activity (AC50) in test [4] was above 10 µM; on Vasopressin V2 receptor, above 30 µM; on Mu-type opioid receptor it was above 30 µM; in [5] it was above 10 µM; in [6] it was above 10 µM; in test [7], above 30 µM. For the same compound, the concentration at half-maximal activity (AC50) at Melanocortin receptor 3 was above 30 µM.

For `O=C1C(CC[S+]([O-])c2ccccc2)C(=O)N(c2ccccc2)N1c1ccccc1` (centres undefined) [SULFINPYRAZONE], the half-maximal activity concentration (AC50) was above 10 µM in test [3]; above 10 µM on Histamine H2 receptor; above 30 µM on D(3) dopamine receptor; above 10 µM at Adenosine receptor A2a; above 10 µM on Adenosine receptor A3; above 10 µM in test [8]. Also, the AC50 in [4] is above 10 µM; at Vasopressin V2 receptor, above 10 µM; on Mu-type opioid receptor, above 30 µM; in test [5], above 30 µM; in test [6], above 30 µM; in test [7] it was above 10 µM. Besides, the AC50 at Melanocortin receptor 3 is above 10 µM.

Regarding `CCN(CC)CCNC(=O)c1c(C)[nH]c(/C=C2\C(=O)Nc3ccc(F)cc32)c1C` [SUNITINIB], the concentration at half-maximal activity (AC50) in test [3] is above 30 µM; on Histamine H2 receptor, above 30 µM; on D(3) dopamine receptor, 1.94 µM; on Adenosine receptor A2a, 5.3 µM; on Adenosine receptor A3 it was 8.4 µM; in [8] it was above 30 µM. In addition, the AC50 in [4] is 1.76 µM; on Vasopressin V2 receptor, 5.4 µM; at Mu-type opioid receptor, 4.9 µM; in [5], above 30 µM; in test [6], above 30 µM; in test [7], 7.2 µM. This compound yielded a concentration at half-maximal activity (AC50) at Melanocortin receptor 3 of 7.8 µM.

For the compound `C=CC[C@@H]1/C=C(\C)C[C@H](C)C[C@H](OC)[C@H]2O[C@@](O)(C(=O)C(=O)N3CCCC[C@H]3C(=O)O[C@H](/C(C)=C/[C@@H]3CC[C@@H](O)[C@H](OC)C3)[C@H](C)[C@@H](O)CC1=O)[C@H](C)C[C@@H]2OC` [TACROLIMUS ANHYDROUS], the AC50 was above 10 µM in test [3]; above 10 µM on Histamine H2 receptor; above 30 µM on D(3) dopamine receptor; above 30 µM at Adenosine receptor A2a; 11 µM and 27.2 µM on Adenosine receptor A3; above 10 µM in test [8]. Further, the AC50 in test [4] was above 30 µM; at Vasopressin V2 receptor, above 30 µM; at Mu-type opioid receptor it was above 30 µM; in [5], 7.2 µM and > 10 µM; in [6] it was above 10 µM; in [7], above 30 µM. The AC50 on Melanocortin receptor 3 is above 30 µM.

As for `CC(C)OC(=O)CCC/C=C\C[C@@H]1[C@@H](/C=C/C(F)(F)COc2ccccc2)[C@H](O)C[C@@H]1O` [TAFLUPROST], the concentration at half-maximal activity (AC50) in test [1] was above 10 µM; in test [2], above 30 µM.

On to `C[C@]1(Cn2ccnn2)[C@H](C(=O)O)N2C(=O)C[C@H]2S1(=O)=O` [TAZOBACTAM], for which the AC50 in [1] and in test [2] was above 30 µM throughout.

Take `CC1=C(/C=C/C(C)=C/C=C/C(C)=C/C(=O)O)C(C)(C)CCC1` [TRETINOIN]: the values for the AC50 in test [1] and in test [2] were above 30 µM and 20.3 µM, respectively.
